In data set [1] the target is T1, LAPTc (acidic M17 leucyl-aminopeptidase from T. cruzi) (Trypanosoma cruzi, UniProt V5BWE3). Briefly: High-throughput single point screening for LAPTc inhibitors by RapidFire-MS. The data set is classed as biochemical. The conditions noted are these: read-out: Percent Inhibition. How it is done:
(§1) This assay was previously described. The assay was performed in 384-well clear F-bottom polypropylene plates with a final reaction volume of 15 μL. The reaction mixture contained 7.5 μL LAPTc in 50 mM Tris-HCl, pH 7.5, 0.005% NP-40 and 7.5 μL LSTVIVR peptide substrate (Cambridge Research Biochemicals, Billingham, UK) in the same buffer was added to start the reaction. The reaction was performed at room temperature for 40 min and then stopped with 85 μL 1% formic acid containing 0.15 mg/mL STVIVR* internal standard (Cambridge Research Biochemicals, Billingham, UK).
Single point screening of a library of 3329 compounds was performed in 384-well clear plates (Greiner 781101) at room temperature. Test compounds (45 nL in DMSO) were transferred to assay plates by an ECHO 550 acoustic dispenser (Labcyte). LAPTc was tested at 3 nM with 150 μM (approximately the value of the apparent Michaelis-Menten constant -appKM- [16]) LSTVIVR peptide substrate in a 40 min reaction. Before addition of substrate, LAPTc was preincubated with 45 nL compounds or DMSO for 15 min. Compounds, dissolved in DMSO, were tested at 30 μM. Controls without compound (the same volume of DMSO, 0% inhibitory effect) and without enzyme and compound (100% inhibitory effect) were prepared. The experiment was performed without replicates. The remaining experimental conditions were maintained as previously described. Data were processed and analysed through ActivityBase XE (IDBS). The selection criterion for hits in this single point screen was percent inhibition larger than the mean plus three standard deviations. All primary screening data are available in ChEMBL (see Data Availability statement).

For the next data set, the target named is LAPTc (Trypanosoma cruzi, UniProt V5BWE3). Briefly: Mode of inhibition studies by RapidFire-MS. In kind it is biochemical. As for the experimental part:
Five concentrations of the LSTVIVR peptide substrate (100–1600 μM range) were tested in the presence of 3 nM LAPTc for 40 min. For each substrate concentration, compound 4 was tested at 0, 0.1 and 0.2 μM. For each substrate and compound 4 concentration, a negative control without enzyme was used. Before addition of substrate, LAPTc was preincubated with compound 4 for 15 min. Other experimental conditions were as previously described. Ki was calculated by fitting the Morrison equation to the experimental data. Binding energy (ΔGb) was calculated from Ki according to the equation ΔG = -RTlnKi.

A further data set concerns Vero cells. The data set is described as follows: Cytotoxicity against infected Vero host cells in T. cruzi intracellular assay. More on the design: Max Effect (Vero): unit not given here. The data set is classed as cell-based, African green monkey. As for the experimental part:
(§2) Briefly, these cells were maintained at 37°C and 5% CO2 in MEM supplemented with 10% FCS, sub-culturing every 2–3 days at a ratio of 1:5 after 5 min treatment with Trypsin-EDTA (Gibco).
(§3) This assay was performed as described with the only modification that treatment was 96 h instead of 72 h. Briefly, Vero cells were infected overnight with tissue culture derived T. cruzi trypomastigotes in T225 tissue culture flasks (MOI 5). Any remaining free trypomastigotes were washed away with serum free MEM and the infected Vero cells were harvested by trypsinisation. Compounds (250 nL in DMSO) were dispensed using LabCyte ECHO (Beckman Coulter Life Sciences, USA) into each well of Corning black flat bottomed 384-well plates (Corning, USA). […] The infected Vero cells were then plated into the plates containing the compounds, at 4,000 cells per well in MEM media with 1% FCS. […] The plates were imaged on a Perkin Elmer Operetta high-content imaging system using a 20× objective. Images were analyzed using the Columbus system (Perkin Elmer). The algorithm first identified the Vero nuclei followed by demarcation of the cytoplasm and identification of intracellular amastigotes. This algorithm reported percent infected Vero cell and total number of Vero cells. All potency determinations were carried out in at least three independent replicates and are reported as pEC50 +/- standard deviation. pEC50 = -log(EC50[M]).

Test in data set [2]: as above
The data set is classed as cell-based, African green monkey. On the set-up: Max Effect (Vero): unit not given here. The conditions noted are these: African green monkey, Vero cells infected with T. cruzi; infected Vero host cells, 96 h; read-out: pCC50 (Vero) +/- StDev (converted). How it is done:
as §2, §3

Data set [3] addresses T1, LAPTc (acidic M17 leucyl-aminopeptidase from T. cruzi). Briefly: Dose-response studies for LAPTc inhibition by RapidFire-MS. The data set is classed as biochemical. How it is done:
as §1
To generate half-maximum inhibitory concentration (IC50) data for LAPTc, 10-point dose-response curves with 100 μM as highest concentration and 1:2 dilution in DMSO (0.195–100 μM range) were prepared in 384 well plates. All other experimental conditions were as described above. All IC50 curve fitting was performed by four-parameter logistic dose-response curve fit using ActivityBase XE (IDBS). At least three replicates were generated for each hit compound.

The test system of data set [4] is intracellular T. cruzi amastigotes. The data set is described as follows: T. cruzi intracellular assay (high-content imaging, infected Vero cells). In kind it is cell-based, Trypanosoma cruzi. On the set-up: Max Effect (T. cruzi): unit not given here. As for the experimental part:
T. cruzi parasite, TcI strain Silvio X10/7 subclone A1 [34] was maintained in culture as previously described. Parasites were maintained as amastigotes by passaging on a weekly basis in Vero cells. Culture maintenance infections were carried out at an MOI (multiplicity of infection) of 1.5.
This assay was performed as described with the only modification that treatment was 96 h instead of 72 h. Briefly, Vero cells were infected overnight with tissue culture derived T. cruzi trypomastigotes in T225 tissue culture flasks (MOI 5). Any remaining free trypomastigotes were washed away with serum free MEM and the infected Vero cells were harvested by trypsinisation. Compounds (250 nL in DMSO) were dispensed using LabCyte ECHO (Beckman Coulter Life Sciences, USA) into each well of Corning black flat bottomed 384-well plates (Corning, USA). […] The infected Vero cells were then plated into the plates containing the compounds, at 4,000 cells per well in MEM media with 1% FCS. After 96 h incubation at 37°C in presence of 5% CO2, the plates were fixed with 4% formaldehyde for 20 min at room temperature and stained with 5 μg/mL Hoechst 33342. The plates were imaged on a Perkin Elmer Operetta high-content imaging system using a 20× objective. Images were analyzed using the Columbus system (Perkin Elmer). The algorithm first identified the Vero nuclei followed by demarcation of the cytoplasm and identification of intracellular amastigotes. This algorithm reported percent infected Vero cell and total number of Vero cells. All potency determinations were carried out in at least three independent replicates and are reported as pEC50 +/- standard deviation. pEC50 = -log(EC50[M]).

In a further data set the test system is HepG2 cells. Briefly: Cytotoxicity assay on human HepG2 cells (resazurin). In kind it is cell-based. For orientation: Resazurin is reduced to fluorescent resorufin, in cell work by metabolically active cells.
Test in data set [5]: as above
The data set is classed as cell-based. The conditions noted are these: human, HepG2 cells, 72 h, two independent experiments; read-out: pCC50 (HepG2) (converted).

In a further data set the target is T2, human LAP3 (Homo sapiens, UniProt P28838).
T2 construct: purchased Assay Genie, Ireland
T2 sequence (P28838 whole entry): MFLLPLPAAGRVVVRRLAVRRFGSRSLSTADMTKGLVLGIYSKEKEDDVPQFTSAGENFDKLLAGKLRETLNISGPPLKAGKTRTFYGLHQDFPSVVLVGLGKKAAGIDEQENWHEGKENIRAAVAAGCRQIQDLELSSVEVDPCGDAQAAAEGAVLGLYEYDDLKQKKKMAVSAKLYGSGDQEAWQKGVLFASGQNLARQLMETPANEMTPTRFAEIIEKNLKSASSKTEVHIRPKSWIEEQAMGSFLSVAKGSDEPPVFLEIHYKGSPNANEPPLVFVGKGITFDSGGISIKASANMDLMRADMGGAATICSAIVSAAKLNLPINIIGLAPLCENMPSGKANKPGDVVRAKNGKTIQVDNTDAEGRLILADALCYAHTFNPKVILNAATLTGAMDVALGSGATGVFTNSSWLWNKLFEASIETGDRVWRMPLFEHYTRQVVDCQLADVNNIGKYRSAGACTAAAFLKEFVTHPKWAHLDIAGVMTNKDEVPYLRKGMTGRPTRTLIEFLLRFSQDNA
Briefly: Dose-response studies for human LAP3 inhibition by RapidFire-MS. The data set is classed as biochemical. As for the experimental part:
Human LAP3 enzyme (Assay Genie, Ireland) was tested at 150 nM with 600 μM (~1 appKM) LSTVIVR peptide substrate and 1 mM ZnCl2 in a 180 min reaction. All other experimental conditions were as described above for dose-response assays with LAPTc.

Data set [6] relates to PfA-M17 (M17 LAP from Plasmodium falciparum). The conditions noted are these: cited from earlier work.
In data set [7] the test system is intracellular T. cruzi amastigotes. More on the design: method as in PMID 30001347. The conditions noted are these: reported previously in this assay ref 33; cited from earlier work.
[8] abbreviates: Replicate data generation, individual replicates.

“And” between values parts separate entries of the source, which are not always exact repeats. Equal values may be shown once. “Also recorded” adds a separate entry of the source. Read-outs that look alike come from different tables or passages of the source.

T1 sequence (V5BWE3 entry or part of it): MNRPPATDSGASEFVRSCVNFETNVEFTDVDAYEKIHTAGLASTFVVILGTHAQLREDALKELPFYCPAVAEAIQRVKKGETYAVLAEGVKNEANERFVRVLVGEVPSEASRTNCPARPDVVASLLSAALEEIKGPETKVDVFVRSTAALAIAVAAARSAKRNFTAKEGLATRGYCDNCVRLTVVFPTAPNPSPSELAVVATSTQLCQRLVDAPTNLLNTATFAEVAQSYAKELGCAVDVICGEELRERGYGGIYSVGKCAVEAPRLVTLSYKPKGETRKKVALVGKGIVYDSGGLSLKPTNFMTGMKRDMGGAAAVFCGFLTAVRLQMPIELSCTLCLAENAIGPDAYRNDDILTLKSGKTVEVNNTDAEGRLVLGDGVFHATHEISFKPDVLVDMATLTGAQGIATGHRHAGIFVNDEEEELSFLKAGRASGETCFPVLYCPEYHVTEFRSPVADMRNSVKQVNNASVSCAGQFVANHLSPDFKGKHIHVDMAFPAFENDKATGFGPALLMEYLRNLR
LAPTc, sequence (V5BWE3 entry or part of it): as above

Broadly, the inhibition is the relative decrease from the control value, in per cent. Broadly, the Ki is the dissociation constant of the complex between target and ligand, obtained from inhibition or displacement. On to `COc1ccc2oc(C(=O)Nc3nc(-c4ccccn4)cs3)c(C)c2c1` [Compound 4], for which the inhibition at 30 µM in [1] came out at 59%. This compound also yielded an inhibitory constant (Ki) at LAPTc of 270 nM. Further, the “ligand efficiency (LE)” value on LAPTc (LE = -RT ln Ki / number of non-hydrogen atoms) is reported as 0.33. Moreover, the “experimental binding energy (ΔGb)” value on LAPTc (calculated from Ki, ΔG = -RTlnKi) is recorded as -8.95 kcal/mol. In addition, the mode of inhibition entry at LAPTc (with respect to substrate peptide LSTVIVR, Lineweaver-Burk) was “competitive inhibitor”. Further, the “Selectivity index (fold window Tc/Vero)” value in the data set with Vero cells came out at 3.3 fold. The “Max Effect (Vero)” value in the data set on Vero cells (individual replicates) was 85 and 83 and 79. In addition, the “pEC50 (Vero)” value with Vero cells (individual replicates) is 5.4 and 6.0 and 5.5 and 5.8. Also, the CC50 at 96 h in data set [2] is 2240 nM. For the same compound, the IC50 in data set [3] (IC50 (LAPTc)) is 440 nM; in data set [3] (pIC50 +/- StDev (LAPTc), average of four independent replicates), 437 nM; in data set [3] (pIC50, Initial hit confirmation, single replicate) it was 200 nM; in data set [3] (pIC50, Replicate data generation, individual replicates), 794 nM and 501 nM; at human LAP3, > 100 µM. The “Hill Slope” value in data set [3] (Initial hit confirmation, single replicate) is 2.5; in [3] (setting [8]), 2.8 and 2.1 and 2.3. In addition, in data set [3] (setting [8]), the “Maximum Effect” value is 87% and 81%. Further, the Emax is 96% in [3] (read-out: Maximum Effect, Initial hit confirmation, single replicate); 83% in [3] (read-out: Maximum Effect, Replicate data generation, individual replicates); 95% in data set [4] (Trypanosoma cruzi, Vero, individual replicates, read-out: Max Effect (T. cruzi)). Besides, the “Hit Confirmation” value in data set [3] (whether primary screen hit confirmed in potency experiment) is listed as “confirmed”. In addition, the EC50 in [4] (Trypanosoma cruzi, Vero, 96 h, four independent experiments, read-out: pEC50 (T. cruzi) +/- StDev (converted)) was 676 nM; in [4] (Trypanosoma cruzi, Vero, 96 h, read-out: EC50 (T. cruzi amastigotes)), 700 nM; in data set [4] (Trypanosoma cruzi, Vero, individual replicates, read-out: pEC50 (T. cruzi) (converted)), 631 nM. Besides, in [4] (individual replicates), the “Max Effect (T. cruzi)” value was 92 and 96 and 100. Also, the “pEC50 (T. cruzi)” value in [4] (individual replicates) was 6.1. In addition, the “Selectivity window based on the HepG2 data” value with HepG2 cells (T. cruzi vs HepG2) is > 166 fold. The “Max Effect (HepG2)” value with HepG2 cells (individual replicates) was 38 and 49. For the same compound, in the data set with HepG2 cells (individual replicates), the “pEC50 (HepG2)” value is reported as < 4.0. Besides, the “toxicity against HepG2 cells (in words)” value in the data set on HepG2 cells (uninfected HepG2 cells) was “no toxicity was observed; also recorded: some toxicity was seen for compound 4 at 33 μM and 100 μM”. For the same compound, the CC50 at 72 h in data set [5] is > 100 µM.
Regarding `CC(C)(C)C(=O)NC(C(=O)NO)c1ccc(-c2cc(F)c(F)c(F)c2)cc1` (stereo not shown) [Compound 10o], the inhibition constant (Ki) in [6] was 60 nM.
As for `CC(C)(C)C(=O)NC(C(=O)NO)c1ccc(-n2cccn2)cc1` (stereo not shown) [Compound 13d], the Ki in data set [6] is 28 nM.
For the compound `O=C(Cn1ccnc1[N+](=O)[O-])NCc1ccccc1` [benznidazole], in data set [7], the EC50 was 2000 nM and the “pEC50 (T. cruzi)” value was 5.7.
For the compound `CC(C)C[C@H](NC(=O)[C@@H](O)[C@H](N)Cc1ccccc1)C(=O)O` [bestatin, reference compound], in data set [3] (average of four independent replicates, read-out: pIC50 +/- StDev (LAPTc) (converted)), the IC50 was 240 nM. Also, the Ki in [6] was 25 nM.
For `CC1CS(=O)(=O)CCN1/N=C/c1ccc([N+](=O)[O-])o1` (stereo not shown) [nifurtimox], in data set [7], the EC50 was 800 nM and the “pEC50 (T. cruzi)” value is reported as 6.1.
Take `CC(C)C[C@@H](NC(=O)[C@H](O)[C@@H](N)Cc1ccc([N+](=O)[O-])cc1)C(=O)O` [nitrobestatin]: the Ki in [6] was 2.7 nM.

These data come from PMC10901353, “Identification of a potent and selective LAPTc inhibitor by RapidFire-Mass Spectrometry, with antichagasic activity” (PLOS Neglected Tropical Diseases, 2024).
